In test [1] the test system is primary human pan T-cells. Description: Human IL-2 assay for GCN2 inhibition (IL-2 secretion by T cells in low amino acid condition). It counts as cell-based. The following applies: T-cell; IL-2 secretion from human T cells, anti-CD3/CD28 stimulation, 96 hours; read-out: IL2/T-cell EC50. The source says: Tumor microenvironment is profoundly immuno-suppressive. This may be attributed to the depletion of amino acids (like arginine and tryptophan) which triggers the activation of GCN2 in immune cells, including T cell and myeloid cells. In T cells, activation of GCN2 leads to reduce effector functions of CD8 T cells and induction and/or maintenance of immuno-suppressive T-regs. Inhibition of that immuno-suppressive response by GCN2 inhibitors enables an anti-cancer immune response by activating effector T-cells. Herein we describe an in-vitro system we established using human T-cells stimulated in low amino acid condition in order to engage the GCN2 biology. The method described involves the modulation of IL-2 levels secreted by human T cells in responses to the GCN2 inhibitors disclosed herein.
Amino acid-free RPMI was reconstituted with all but one of the amino acids found in standard RMPI (e.g. Arginine, Tryptophan), 10% charcoal-stripped fetal bovine serum, 100 Units/mL penicillin and 0.1 mg/mL streptomycin. Primary human pan T-cells were isolated using Pan T Cell Isolation Kit, human (MACS Miltenyi biotech Cat #Order no. 130-096-535) from apheresis cones and 5×104 pan T-cells per well. The purified T cells are seeded in Nunc™ 96-Well Polystyrene Round Bottom Microwell Plates (the cells are rested in No TRP media in a 15 ml falcon tube in the incubator for 30-45 minutes while titrations for tryptophan and the GCN2 inhibitor compound are made) A plate matrix was developed to titrate both a GCN2 inhibitor and the amino acid of interest ranging from “No Amino Acid” condition, up to the concentration found in the regular RPMI media (20 μM for TRP and 950 μM for Arginine). The cells were incubated for 30 min at 37° C. with the GCN2 inhibitor and then stimulated with 5×104 anti-CD3/CD28 Dynabeads® per well. After 96 hours of incubation the IL-2 level in the supernatant were measured using ELISA (R&D systems Cat #DY202 (Human IL-2 DuoSet ELISA). Data were plotted in GraphPad Prism software and EC50 is calculated.

A further test deals with GCN2 kinase (Homo sapiens, UniProt Q9P2K8). The experiment in a line: GCN2 enzyme inhibition assay (Transcreener ADP2 fluorescence polarization). The format is biochemical. The following applies: 280 μM ATP; for Ki: Enzyme activity for compounds of Formula IV, Ki(app), 25° C.; for IC50: compounds of Formula IV, 4 nM GCN2 kinase. The method in brief:
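ADP formation read by Transcreener FP after a 1 h, 25 °C kinase reaction containing 280 μM ATP, 200 μM (RS)7 substrate and 4 nM GCN2, pH 7.5 Tris buffer. Compounds (0–8 μM final) were added 10 min before ATP. Percent inhibition gave IC50 and apparent Ki via tight-binding fit.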

Test [2] addresses intracellular GCN2 (phosphorylation of the GCN2 substrate eIF2α) (Homo sapiens, UniProt Q9P2K8). Description: GCN2 cellular inhibition assay (AlphaScreen SureFire P-eIF2α Ser51, borrelidin-treated U2OS cells). The following applies: compounds of Formula IV; biomarker assay, phosphorylated eIF2α Ser51 in borrelidin-treated U2OS cells. The format is cell-based. An outline of the steps:
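First, U2OS cells are plated and left overnight at 37 °C. Next, compounds (from 40 μM final, 4-fold steps) and 10 μM borrelidin are added for 1 h, cells lysed, and phospho-Ser51 eIF2α detected by AlphaScreen bead sandwich. Inhibition is computed versus borrelidin-only wells.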

Among the data in patent publication US10988477B2 (Merck Patent GmbH, priority 2018, dated 2021) are EC50, Ki and IC50 values, retold here.

Sequence of GCN2 kinase (Q9P2K8 whole entry): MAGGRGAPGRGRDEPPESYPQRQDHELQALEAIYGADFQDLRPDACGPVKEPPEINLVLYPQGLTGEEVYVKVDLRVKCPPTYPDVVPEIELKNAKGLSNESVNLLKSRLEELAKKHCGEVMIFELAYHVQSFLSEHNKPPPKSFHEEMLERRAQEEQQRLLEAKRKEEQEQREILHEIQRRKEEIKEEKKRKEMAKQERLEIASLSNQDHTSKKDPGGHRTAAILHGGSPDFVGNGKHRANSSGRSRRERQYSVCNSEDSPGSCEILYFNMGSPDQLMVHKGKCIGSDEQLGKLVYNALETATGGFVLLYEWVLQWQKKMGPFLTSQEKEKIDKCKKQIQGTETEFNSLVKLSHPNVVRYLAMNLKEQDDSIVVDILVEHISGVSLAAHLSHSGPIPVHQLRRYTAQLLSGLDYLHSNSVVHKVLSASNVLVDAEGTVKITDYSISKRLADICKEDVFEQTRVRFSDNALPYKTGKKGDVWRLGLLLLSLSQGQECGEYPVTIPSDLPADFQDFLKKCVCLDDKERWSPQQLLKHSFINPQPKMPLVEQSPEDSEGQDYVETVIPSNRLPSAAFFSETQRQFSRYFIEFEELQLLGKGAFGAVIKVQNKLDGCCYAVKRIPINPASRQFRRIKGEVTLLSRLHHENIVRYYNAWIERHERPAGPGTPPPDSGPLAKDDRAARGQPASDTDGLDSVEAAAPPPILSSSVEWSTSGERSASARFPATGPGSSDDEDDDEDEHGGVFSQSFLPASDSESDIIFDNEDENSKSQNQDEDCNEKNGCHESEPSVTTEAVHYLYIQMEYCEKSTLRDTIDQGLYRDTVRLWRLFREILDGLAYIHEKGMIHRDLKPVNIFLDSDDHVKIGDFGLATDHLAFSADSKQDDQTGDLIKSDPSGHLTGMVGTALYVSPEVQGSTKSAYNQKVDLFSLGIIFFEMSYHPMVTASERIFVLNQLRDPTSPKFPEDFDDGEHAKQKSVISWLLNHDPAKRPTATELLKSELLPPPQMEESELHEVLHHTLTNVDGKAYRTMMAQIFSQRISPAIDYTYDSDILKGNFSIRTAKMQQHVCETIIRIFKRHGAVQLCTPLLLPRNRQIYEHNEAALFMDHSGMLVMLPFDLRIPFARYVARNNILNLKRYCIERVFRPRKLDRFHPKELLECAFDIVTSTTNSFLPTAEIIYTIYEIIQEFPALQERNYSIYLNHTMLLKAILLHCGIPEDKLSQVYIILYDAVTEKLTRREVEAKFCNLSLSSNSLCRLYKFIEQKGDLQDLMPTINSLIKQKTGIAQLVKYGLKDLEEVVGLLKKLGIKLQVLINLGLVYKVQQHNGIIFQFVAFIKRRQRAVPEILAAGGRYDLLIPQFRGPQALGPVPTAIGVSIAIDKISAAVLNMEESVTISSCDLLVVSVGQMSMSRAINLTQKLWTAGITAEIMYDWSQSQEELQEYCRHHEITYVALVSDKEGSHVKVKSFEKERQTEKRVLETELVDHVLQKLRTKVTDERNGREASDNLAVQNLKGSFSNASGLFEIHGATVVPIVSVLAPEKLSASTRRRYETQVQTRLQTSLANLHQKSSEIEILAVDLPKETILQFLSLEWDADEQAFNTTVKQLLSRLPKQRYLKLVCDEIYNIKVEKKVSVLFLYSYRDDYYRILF
Sequence of intracellular GCN2 (phosphorylation of the GCN2 substrate eIF2α) (Q9P2K8 whole entry): as above

With `C[C@H]1C[C@@H](NS(C)(=O)=O)CN(c2cc(-c3cnc4ccc(C(F)F)nn34)ncn2)C1` (stereo in doubt) [II-777, N-((3R,5S)-1-(6-(6-(difluoromethyl)imidazo[1,2-b]pyridazin-3-yl)pyrimidin-4-yl)-5-methylpiperidin-3-yl)methanesulfonamide], the EC50 in test [1] lay in the range of 100 to 500 nM. `FC(F)(F)c1cn2c(-c3nccc(N4CCC(Oc5cn[nH]c5)C4)n3)cnc2cn1` (stereo not drawn) [IV-695, 3-(4-(3-((1H-Pyrazol-4-yl)oxy)pyrrolidin-1-yl)pyrimidin-2-yl)-6-(trifluoromethyl)imidazo[1,2-a]pyrazine] returned a Ki at GCN2 kinase of 10 to 100 nM. The IC50 in test [2] was over 5000 nM. `FC(F)(F)c1cn2c(-c3nccc(N4CCCC(C5CNC5)C4)n3)cnc2cn1` (stereo not drawn) [IV-696, 3-(4-(3-(Azetidin-3-yl)piperidin-1-yl)pyrimidin-2-yl)-6-(trifluoromethyl)imidazo[1,2-a]pyrazine] returned a Ki at GCN2 kinase of 100 to 1000 nM. For the same molecule, in test [2], the IC50 was over 5000 nM.

Molecule `FC(F)c1cn2c(-c3nsc(N4CCOC(c5cn[nH]c5)C4)n3)cnc2cn1` (stereo not drawn) [IV-702, 4-(3-(6-(difluoromethyl)imidazo[1,2-a]pyrazin-3-yl)-1,2,4-thiadiazol-5-yl)-2-(1H-pyrazol-4-yl)morpholine] had a Ki on GCN2 kinase of 100 to 1000 nM. Besides, the IC50 in test [2] is over 5000 nM.

As to `CS(=O)(=O)NC[C@@H]1CN(c2nc(-c3cnc4cnc(C(F)F)cn34)ns2)CCO1` [IV-703, (S)—N-((4-(3-(6-(difluoromethyl)imidazo[1,2-a]pyrazin-3-yl)-1,2,4-thiadiazol-5-yl)morpholin-2-yl)methyl)methanesulfonamide], at GCN2 kinase, the Ki was 100 to 1000 nM. The same molecule came in with an IC50 in test [2] of over 5000 nM. As to `FC(F)(F)c1cn2c(-c3nsc(N4CCOC(c5cn[nH]c5)C4)n3)cnc2cn1` (stereo not drawn) [IV-704, 2-(1H-pyrazol-4-yl)-4-(3-(6-(trifluoromethyl)imidazo[1,2-a]pyrazin-3-yl)-1,2,4-thiadiazol-5-yl)morpholine], the Ki on GCN2 kinase is 100 to 1000 nM. Further, the IC50 in test [2] is over 5000 nM. In the same order, the values of `CS(=O)(=O)NC[C@@H]1CN(c2nc(-c3cnc4cnc(C(F)(F)F)cn34)ns2)CCO1` [IV-705, (S)—N-((4-(3-(6-(trifluoromethyl)imidazo[1,2-a]pyrazin-3-yl)-1,2,4-thiadiazol-5-yl)morpholin-2-yl)methyl)methanesulfonamide] are 100 to 1000 nM and over 5000 nM.

`Cc1noc([C@@H]2CN(c3ccnc(-c4cnc5cnc(C(F)(F)F)cn45)n3)C[C@H](C)O2)n1` [IV-712] registered a Ki at GCN2 kinase of 100 to 1000 nM. Besides, the IC50 in test [2] was over 5000 nM. In the same order, the values of `Cc1nnc([C@@H]2CN(c3ccnc(-c4cnc5cnc(C(F)(F)F)cn45)n3)C[C@H](C)O2)o1` [IV-716] are 100 to 1000 nM and over 5000 nM. The matching figures for `FC(F)(F)c1cn2c(-c3nccc(N4CCOC(c5ccncc5)C4)n3)cnc2cn1` (stereo not drawn) [IV-724]: over 1000 nM and over 5000 nM.

`O=C(N[C@H]1CCCN(c2ccnc(-c3cnc4cnc(C(F)(F)F)cn34)n2)C1)c1cn[nH]c1` [IV-733]: on GCN2 kinase, the Ki is over 1000 nM. Further, the IC50 in test [2] was over 5000 nM. In the same order, the values of `N#Cc1cccc(C(=O)N[C@H]2CCCN(c3ccnc(-c4cnc5cnc(C(F)(F)F)cn45)n3)C2)c1` [IV-741] are over 1000 nM and over 5000 nM. In the case of `N#Cc1ccc(C(=O)N[C@H]2CCCN(c3ccnc(-c4cnc5cnc(C(F)(F)F)cn45)n3)C2)cc1` [IV-743], the Ki at GCN2 kinase is over 1000 nM. The same molecule displayed an IC50 in test [2] of over 5000 nM.

As to `C[C@H]1C[C@H](c2c[nH]nc2F)CN(c2nccc(-c3cnc4cnc(C(F)(F)F)cn34)n2)C1` [IV-754, 3-(2-((3R,5S)-3-(3-fluoro-1H-pyrazol-4-yl)-5-methylpiperidin-1-yl)pyrimidin-4-yl)-6-(trifluoromethyl)imidazo[1,2-a]pyrazine], the IC50 against GCN2 kinase was 10 to 1000 nM; in test [2], under 500 nM. In the same order, the values of `C[C@@H]1C[C@H](c2c[nH]nc2F)CN(c2nccc(-c3cnc4cnc(C(F)(F)F)cn34)n2)C1` [IV-757, 3-(2-((3R,5R)-3-(3-fluoro-1H-pyrazol-4-yl)-5-methylpiperidin-1-yl)pyrimidin-4-yl)-6-(trifluoromethyl)imidazo[1,2-a]pyrazine] are 10 to 1000 nM and under 500 nM.

Consider `Cc1n[nH]cc1[C@H]1C[C@@H](C)CN(c2nccc(-c3cnc4cnc(C(F)(F)F)cn34)n2)C1` [IV-758, 3-(2-((3R,5R)-3-methyl-5-(3-methyl-1H-pyrazol-4-yl)piperidin-1-yl)pyrimidin-4-yl)-6-(trifluoromethyl)imidazo[1,2-a]pyrazine], for which the IC50 on GCN2 kinase is 10 to 1000 nM; in test [2] it was under 500 nM.

In the case of `C[C@H]1C[C@H](c2c[nH]nc2F)CN(c2ccnc(-c3cnc4cnc(C(F)(F)F)cn34)n2)C1` [IV-764, 3-(4-((3R,5S)-3-(3-fluoro-1H-pyrazol-4-yl)-5-methylpiperidin-1-yl)pyrimidin-2-yl)-6-(trifluoromethyl)imidazo[1,2-a]pyrazine], the IC50 at GCN2 kinase was 10 to 1000 nM; in test [2], under 500 nM. For `C[C@@H]1C[C@@H](c2c[nH]nc2F)CN(c2ccnc(-c3cnc4cnc(C(F)(F)F)cn34)n2)C1` [IV-765], the figures for the IC50 (at GCN2 kinase; in test [2]) were 10 to 1000 nM and under 500 nM, respectively. Regarding `C[C@@H]1C[C@H](c2c[nH]nc2F)CN(c2ccnc(-c3cnc4cnc(C(F)(F)F)cn34)n2)C1` [IV-766], the IC50 at GCN2 kinase was 10 to 1000 nM; in test [2], under 500 nM.

As for `C[C@@H]1C[C@@H](c2cn[nH]c2)CN(c2ccnc(-c3cnc4cnc(C(F)(F)F)cn34)n2)C1` [IV-769, 3-(4-((3R,5S)-3-methyl-5-(1H-pyrazol-4-yl)piperidin-1-yl)pyrimidin-2-yl)-6-(trifluoromethyl)imidazo[1,2-a]pyrazine], the IC50 against GCN2 kinase was 10 to 1000 nM; in test [2], under 500 nM. In the case of `C[C@@H]1C[C@H](c2cn[nH]c2)CN(c2ccnc(-c3cnc4cnc(C(F)(F)F)cn34)n2)C1` [IV-770, 3-(4-((3R,5R)-3-methyl-5-(1H-pyrazol-4-yl)piperidin-1-yl)pyrimidin-2-yl)-6-(trifluoromethyl)imidazo[1,2-a]pyrazine], the IC50 against GCN2 kinase was 10 to 1000 nM; in test [2] it was under 500 nM. The matching figures for `C[C@H]1C[C@@H](c2cn[nH]c2)CN(c2ccnc(-c3cnc4cnc(C(F)(F)F)cn34)n2)C1` [IV-771, 3-(4-((3S,5S)-3-methyl-5-(1H-pyrazol-4-yl)piperidin-1-yl)pyrimidin-2-yl)-6-(trifluoromethyl)imidazo[1,2-a]pyrazine]: under 10 nM and under 500 nM. On to `C[C@@H]1C[C@H](N=S(C)(C)=O)CN(c2ccnc(-c3cnc4cnc(C(F)F)cn34)n2)C1` [IV-772, (((3S,5R)-1-(2-(6-(difluoromethyl)imidazo[1,2-a]pyrazin-3-yl)pyrimidin-4-yl)-5-methylpiperidin-3-yl)imino)dimethyl-16-sulfanone], for which the values for the IC50 (against GCN2 kinase; in test [2]) were 10 to 1000 nM and 500 to 5000 nM, respectively.

Turning to `Cc1n[nH]cc1[C@H]1C[C@H](O)CN(c2ccnc(-c3cnc4cnc(C(F)(F)F)cn34)n2)C1` [IV-774, (3S,5R)-5-(3-methyl-1H-pyrazol-4-yl)-1-(2-(6-(trifluoromethyl)imidazo[1,2-a]pyrazin-3-yl)pyrimidin-4-yl)piperidin-3-ol], the IC50 against GCN2 kinase is 10 to 1000 nM; in test [2], over 5000 nM. Consider `Cc1n[nH]cc1[C@@H]1C[C@@H](O)CN(c2ccnc(-c3cnc4cnc(C(F)(F)F)cn34)n2)C1` [IV-775, (3R,5S)-5-(3-methyl-1H-pyrazol-4-yl)-1-(2-(6-(trifluoromethyl)imidazo[1,2-a]pyrazin-3-yl)pyrimidin-4-yl)piperidin-3-ol], for which the IC50 is 10 to 1000 nM at GCN2 kinase and over 5000 nM in test [2].

`Cc1n[nH]cc1[C@@H]1C[C@H](O)CN(c2ccnc(-c3cnc4cnc(C(F)(F)F)cn34)n2)C1` [IV-777, (3S,5S)-5-(3-methyl-1H-pyrazol-4-yl)-1-(2-(6-(trifluoromethyl)imidazo[1,2-a]pyrazin-3-yl)pyrimidin-4-yl)piperidin-3-ol]: the IC50 at GCN2 kinase lay within 10 to 1000 nM; in test [2] it was 500 to 5000 nM.
